The assay concerns Modified anti-cocaine aptamer (DNA, aptamer) ATCTCGGGAGACAAGGATAAATCCTTCAATGAAGTGGGTCTCCC
Put plainly: fluorescence dequenching. The settings on record: apparent; displaced strand 5'-[…]-3'-dabcyl quencher oligo; cocaine 0-5 mM.

`COC(=O)[C@H]1[C@@H](OC(=O)c2ccccc2)C[C@@H]2CC[C@H]1N2C`: the “K D” value was found to be 134.4 ± 7.2 µM.
